In the NIST ThermoML archive (doi:10.1016/j.jct.2015.01.013):
± gives the expanded uncertainty stated by the source. Each block holds one molecule with its values, some of them ahead of it.

Columns and labels:
[1] = 298.15 K; 101.33 kPa; Liquid; Vibrating tube method
[2] = excess molar enthalpy (molar enthalpy of mixing); xn = mol fraction of the nth substance listed; details: 298.15 K, 101 kPa, Liquid, Flow calorimetry

mass density [1]: 710.7 ± 0.2 kg/m3
SMILES: C=C(C)CC(C)(C)C [2,4,4-trimethyl-1-pentene]

excess molar enthalpy ([2]; x2 = 0.023): 0.0571 ± 0.00287 kcal/mol
excess molar enthalpy ([2]; x2 = 0.1): 0.107 ± 0.00526 kcal/mol
excess molar enthalpy ([2]; x2 = 0.198): 0.125 ± 0.00621 kcal/mol
excess molar enthalpy ([2]; x2 = 0.301): 0.138 ± 0.00669 kcal/mol
excess molar enthalpy ([2]; x2 = 0.398): 0.14 ± 0.00669 kcal/mol
excess molar enthalpy ([2]; x2 = 0.498): 0.14 ± 0.00669 kcal/mol
excess molar enthalpy ([2]; x2 = 0.598): 0.135 ± 0.00645 kcal/mol
excess molar enthalpy ([2]; x2 = 0.698): 0.122 ± 0.00598 kcal/mol
excess molar enthalpy ([2]; x2 = 0.798): 0.102 ± 0.00502 kcal/mol
excess molar enthalpy ([2]; x2 = 0.899): 0.0674 ± 0.00335 kcal/mol
SMILES: C=C(C)CC(C)(C)C [2,4,4-trimethyl-1-pentene] + CO

excess molar enthalpy ([2]; x2 = 0.0995): 0.124 ± 0.00598 kcal/mol
excess molar enthalpy ([2]; x2 = 0.2009): 0.168 ± 0.00813 kcal/mol
excess molar enthalpy ([2]; x2 = 0.3009): 0.191 ± 0.00932 kcal/mol
excess molar enthalpy ([2]; x2 = 0.4014): 0.199 ± 0.00956 kcal/mol
excess molar enthalpy ([2]; x2 = 0.5016): 0.191 ± 0.00932 kcal/mol
excess molar enthalpy ([2]; x2 = 0.6011): 0.173 ± 0.00837 kcal/mol
excess molar enthalpy ([2]; x2 = 0.701): 0.143 ± 0.00693 kcal/mol
excess molar enthalpy ([2]; x2 = 0.8005): 0.105 ± 0.00526 kcal/mol
excess molar enthalpy ([2]; x2 = 0.9005): 0.0571 ± 0.00287 kcal/mol
SMILES: C1CCCCC1 [cyclohexane] + CC(C)O

Further lines, the molecule ahead of its results:

SMILES: CC(C)O [propan-2-ol]
mass density [1]: 780.8 ± 0.2 kg/m3

SMILES: C1CCCCC1 [cyclohexane]
mass density [1]: 773.5 ± 0.2 kg/m3

SMILES: CO [methanol]
mass density [1]: 786.2 ± 0.2 kg/m3
